Series [1] can be described thus: PAMPA (parallel artificial membrane permeability assay). The format is in vitro ADME. The settings on record: for Papp at 18 hours, 50 µM: PAMPA. Summed up:
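Artificial membrane was 10% (w/v) egg lecithin plus 0.5% (w/v) cholesterol in dodecane on a PVDF filter. A 10 mM DMSO stock was added at 0.5% (v/v) to donor buffer (50 mM MOPSO, pH 6.5, 5.0% glycocholic acid). After 18 h at 37 °C, LC/MS or LC/UV gave donor and acceptor levels for Pe.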

A short description of series [2]: Metabolic stability in human hepatic microsome. The format is in vitro ADME. The settings on record: microsomes.
The mark [3] stands for this setting: membrane permeation rate (Pe), 50 mM MOPSO buffer pH 6.5 with 5.0% glycocholic acid, 37° C., 18 hours, read-out: iPAMPA Pe.
The mark [4] stands for this setting: pH 7.4, human hepatic microsome, NADPH(+), read-out: CL NADPH(+).

Results on 17 compounds are retold here after patent publication US9409952B2, “Peptide-compound cyclization method” (Chugai Seiyaku Kabushiki Kaisha, priority 2011, dated 2016).

Read-outs that look alike come from different tables or passages of the source. Starred links: 1 amine or outer side, 2 acyl side, 3 side chain; linkers in the order of their positions; H or OH if unused. Positions of bridges follow the written chain, without caps; N, C: chain ends. Non-standard residues stand in square brackets, D forms with d. Residues, ends and D or L forms follow the SMILES beside them. ξ: configuration not given here. *: point of attachment. NMeF = CN[C@@H](Cc1ccccc1)C(=O)O; NMeβAla = CN(CCC(=O)[*:2])[*:1]; NMeL = CN[C@@H](CC(C)C)C(=O)O; Thr(3ξ) = CC(O)[C@H](N)C(=O)O; NMeV = CN[C@H](C(=O)O)C(C)C; NMeA = CN[C@@H](C)C(=O)O; Piperidide = C1CCN(*)CC1; dNMeA = CN[C@H](C)C(=O)O; Sar = CNCC(=O)O; tBu = CC(C)(C)*

On to `CC(C)C[C@H]1C(=O)N[C@@H](Cc2ccccc2)C(=O)N[C@@H]([C@@H](C)O)C(=O)N(C)[C@@H](C)C(=O)N[C@H](C(=O)N2CCCCC2)CC(=O)N(C)CC(=O)N[C@@H](C)C(=O)N(C)[C@@H](Cc2ccccc2)C(=O)N(C)[C@@H](CC(C)C)C(=O)N1C` [DP-161] ([Sar]A[NMeF][NMeL][NMeL]FT[NMeA]D-Piperidide; lactam N-9), for which the Papp at 18 hours, 50 µM in series [1] (setting [3]) came out at 26 ×10⁻⁶ cm/s. Also, the microsomal CLint at 1 uM in series [2] (setting [4]) was 194 µL/min/mg.
The corresponding values for `CC[C@H](C)[C@@H]1NC(=O)[C@H](CC(C)C)N(C)C(=O)[C@H](Cc2ccccc2)NC(=O)[C@@H](C)N(C)C(=O)C[C@@H](C(=O)N2CCCCC2)NC(=O)[C@H](Cc2ccccc2)NC(=O)[C@H](C(C)O)NC(=O)[C@@H]2CCCN2C(=O)[C@H](CC(C)C)N(C)C(=O)CNC(=O)[C@H](CC(C)C)N(C)C1=O` (stereo partly shown) [DP-162] ([dNMeA]F[NMeL]I[NMeL]G[NMeL]P[Thr(3ξ)]FD-Piperidide; lactam N-11) are 35 ×10⁻⁶ cm/s and 90 µL/min/mg.
For `CC(C)C[C@H]1C(=O)N[C@@H](COC(C)(C)C)C(=O)N[C@H](C(=O)N2CCCCC2)CC(=O)N(C)CC(=O)N(C)[C@@H](Cc2ccccc2)C(=O)N(C)[C@@H](C)C(=O)N(C)[C@@H](CC(C)C)C(=O)N[C@@H]([C@@H](C)O)C(=O)N(C)[C@@H](C)C(=O)N1C` [DP-163] ([Sar][NMeF][NMeA][NMeL]T[NMeA][NMeL]S(tBu)D-Piperidide; lactam N-9), in that order: 23 ×10⁻⁶ cm/s and 68 µL/min/mg.
The compound `CC[C@H](C)[C@@H]1NC(=O)[C@H](Cc2ccccc2)N(C)C(=O)[C@H](C)N(C)C(=O)[C@H]([C@@H](C)O)NC(=O)[C@@H](C)N(C)C(=O)C[C@@H](C(=O)N2CCCCC2)NC(=O)[C@H](CC(C)C)N(C)C(=O)[C@H](C)N(C)C(=O)[C@H](Cc2ccccc2)NC(=O)[C@H](C(C)C)N(C)C(=O)[C@@H]2CCCN2C1=O` [DP-164] ([dNMeA]T[NMeA][NMeF]IP[NMeV]F[NMeA][NMeL]D-Piperidide; lactam N-11) displayed a Papp at 18 hours, 50 µM in series [1] (pH 6.5) of 30 ×10⁻⁶ cm/s. This compound had a microsomal CLint at 1 uM in series [2] (human, pH 7.4, CL NADPH(+)) of 253 µL/min/mg.
On to `CC(C)C[C@@H]1NC(=O)[C@H](CC(C)C)N(C)C(=O)[C@H](C)N(C)C(=O)[C@@H](C)N(C)C(=O)C[C@@H](C(=O)N2CCCCC2)NC(=O)[C@H]([C@@H](C)O)NC(=O)CN(C)C(=O)[C@H](Cc2ccccc2)NC(=O)[C@H](CC(C)C)N(C)C(=O)[C@H](C(C)C)N(C)C(=O)[C@H](Cc2ccccc2)N(C)C1=O` [DP-165] ([dNMeA][NMeA][NMeL]L[NMeF][NMeV][NMeL]F[Sar]TD-Piperidide; lactam N-11), for which the Papp at 18 hours, 50 µM in series [1] (setting [3]) was found to be 56 ×10⁻⁶ cm/s. Moreover, in series [2] (setting [4]), the microsomal CLint at 1 uM amounted to 42 µL/min/mg.
For `CC(C)C[C@@H]1NC(=O)[C@H](CC(C)C)N(C)C(=O)[C@H](C)NC(=O)[C@H](C)N(C)C(=O)[C@H]([C@@H](C)O)NC(=O)CN(C)C(=O)[C@H](C(C)C)N(C)C(=O)[C@H](CC(C)C)N(C)C(=O)[C@H](Cc2ccccc2)NC(=O)CN(C)C(=O)C[C@@H](C(=O)N2CCCCC2)NC1=O` [DP-167] ([Sar]F[NMeL][NMeV][Sar]T[NMeA]A[NMeL]LD-Piperidide; lactam N-11), in that order: 9.5 ×10⁻⁶ cm/s and 75 µL/min/mg.
For `CC[C@H](C)[C@@H]1NC(=O)[C@H](Cc2ccccc2)N(C)C(=O)CN(C)C(=O)C[C@@H](C(=O)N2CCCCC2)NC(=O)[C@H](C(C)C)N(C)C(=O)[C@H](COC(C)(C)C)NC(=O)[C@H](CC(C)C)N(C)C(=O)[C@H](Cc2ccccc2)N(C)C(=O)CN(C)C(=O)[C@H]([C@@H](C)O)NC(=O)[C@H](CC(C)C)N(C)C1=O` [DP-168] ([Sar][NMeF]I[NMeL]T[Sar][NMeF][NMeL]S(tBu)[NMeV]D-Piperidide; lactam N-11), in that order: 23 ×10⁻⁶ cm/s and 85 µL/min/mg.
On to `CC(C)C[C@@H]1NC(=O)[C@H]([C@@H](C)O)NC(=O)[C@H](Cc2ccccc2)N(C)C(=O)[C@H](CC(C)C)N(C)C(=O)[C@H](Cc2ccccc2)N(C)C(=O)[C@H](C)N(C)C(=O)[C@H](C)N(C)C(=O)[C@H](CC(C)C)N(C)C(=O)[C@@H](C)NC(=O)C[C@@H](C(=O)N2CCCCC2)NC1=O` [DP-169] ([dA][NMeL][NMeA][NMeA][NMeF][NMeL][NMeF]TLD-Piperidide; lactam N-10), for which, in series [1] (setting [3]), the Papp at 18 hours, 50 µM was 36 ×10⁻⁶ cm/s. Also, the microsomal CLint at 1 uM in series [2] (setting [4]) was determined as 43 µL/min/mg.
For `CC(C)C[C@H]1C(=O)N[C@@H](COC(C)(C)C)C(=O)N(C)[C@@H](CC(C)C)C(=O)N[C@H](C(=O)N2CCCCC2)CC(=O)N[C@H](C)C(=O)N(C)[C@@H](C)C(=O)N(C)[C@@H](Cc2ccccc2)C(=O)N(C)[C@@H](CC(C)C)C(=O)N[C@@H]([C@@H](C)O)C(=O)N(C)CC(=O)N1C` [DP-170] ([dA][NMeA][NMeF][NMeL]T[Sar][NMeL]S(tBu)[NMeL]D-Piperidide; lactam N-10), in that order: 43 ×10⁻⁶ cm/s and 22 µL/min/mg.
Take `CC(C)C[C@H]1C(=O)N(C)[C@@H](C(C)C)C(=O)N[C@@H](Cc2ccccc2)C(=O)N[C@H](C(=O)N2CCCCC2)CC(=O)N[C@H](C(C)C)C(=O)N[C@@H](COC(C)(C)C)C(=O)N(C)[C@@H](CC(C)C)C(=O)N[C@@H]([C@@H](C)O)C(=O)N(C)[C@@H](Cc2ccccc2)C(=O)NCC(=O)N1C` [DP-171] ([dV]S(tBu)[NMeL]T[NMeF]G[NMeL][NMeV]FD-Piperidide; lactam N-10): the Papp at 18 hours, 50 µM in series [1] (setting [3]) worked out at 50 ×10⁻⁶ cm/s. For the same compound, the microsomal CLint at 1 uM in series [2] (setting [4]) was 191 µL/min/mg.
On to `CC[C@H](C)[C@@H]1NC(=O)[C@H]([C@@H](C)O)NC(=O)[C@H](C)N(C)C(=O)[C@H](CC(C)C)N(C)C(=O)[C@H](Cc2ccccc2)N(C)C(=O)[C@H](Cc2ccccc2)N(C)C(=O)[C@H](C)N(C)C(=O)[C@H](CC(C)C)N(C)C(=O)[C@@H](C(C)C)NC(=O)C[C@@H](C(=O)N2CCCCC2)NC1=O` [DP-172] ([dV][NMeL][NMeA][NMeF][NMeF][NMeL][NMeA]TID-Piperidide; lactam N-10), for which, in series [1] (membrane permeation rate (Pe), 50 mM MOPSO buffer pH 6.5 with 5.0% glycocholic acid, 37° C., 18 hours), the “iPAMPA Pe” value was 7.0E−05. The microsomal CLint at 1 uM in series [2] (setting [4]) worked out at 25 µL/min/mg.
`CC[C@H](C)[C@@H]1NC(=O)[C@H](CC(C)C)N(C)C(=O)[C@H](C)NC(=O)[C@H](C)N(C)C(=O)C[C@@H](C(=O)N2CCCCC2)NC(=O)[C@H](C(C)C)N(C)C(=O)[C@H](Cc2ccccc2)N(C)C(=O)[C@H]([C@@H](C)O)NC(=O)[C@H](CC(C)C)N(C)C(=O)[C@H](Cc2ccccc2)NC1=O` [DP-173] ([NMeA]A[NMeL]IF[NMeL]T[NMeF][NMeV]D-Piperidide; lactam N-10): in series [1] (setting [3]), the Papp at 18 hours, 50 µM was found to be 58 ×10⁻⁶ cm/s. In series [2] (setting [4]), the microsomal CLint at 1 uM is 251 µL/min/mg.
As for `CC(C)C[C@H]1C(=O)N(C)[C@@H](CC(C)C)C(=O)N(C)[C@@H](CC(C)C)C(=O)N[C@H](C(=O)N2CCCCC2)CC(=O)N(C)CCC(=O)N[C@@H]([C@@H](C)O)C(=O)N(C)[C@@H](C)C(=O)N(C)[C@@H](Cc2ccccc2)C(=O)N(C)[C@@H](Cc2ccccc2)C(=O)NCC(=O)N1C` [DP-174] ([NMeβAla]T[NMeA][NMeF][NMeF]G[NMeL][NMeL][NMeL]D-Piperidide; lactam N-10), the Papp at 18 hours, 50 µM in series [1] (setting [3]) amounted to 22 ×10⁻⁶ cm/s. Further, the microsomal CLint at 1 uM in series [2] (setting [4]) was determined as 66 µL/min/mg.
The corresponding values for `CC(C)C[C@H]1C(=O)N[C@H](C(=O)N2CCCCC2)CC(=O)N(C)CC(=O)N[C@@H]([C@@H](C)O)C(=O)N(C)[C@@H](C)C(=O)N(C)[C@@H](Cc2ccccc2)C(=O)NCC(=O)N(C)[C@@H](Cc2ccccc2)C(=O)N(C)[C@@H](CC(C)C)C(=O)N(C)[C@@H](CC(C)C)C(=O)N1C` [DP-175] ([Sar]T[NMeA][NMeF]G[NMeF][NMeL][NMeL][NMeL]D-Piperidide; lactam N-10) are 48 ×10⁻⁶ cm/s and 94 µL/min/mg.
With `CC(C)C[C@H]1C(=O)NCC(=O)N[C@H](C(=O)N2CCCCC2)CC(=O)N[C@H](C(C)C)C(=O)N[C@@H]([C@@H](C)O)C(=O)N(C)[C@@H](C)C(=O)N(C)[C@@H](Cc2ccccc2)C(=O)N(C)[C@@H](Cc2ccccc2)C(=O)N[C@@H](COC(C)(C)C)C(=O)N1C` [DP-176] ([dV]T[NMeA][NMeF][NMeF]S(tBu)[NMeL]GD-Piperidide; lactam N-9), the Papp at 18 hours, 50 µM in series [1] (setting [3]) came to 25 ×10⁻⁶ cm/s. In addition, in series [2] (setting [4]), the microsomal CLint at 1 uM was determined as 47 µL/min/mg.
In the case of `CC(C)C[C@@H]1NC(=O)[C@H](CC(C)C)N(C)C(=O)[C@H](Cc2ccccc2)NC(=O)[C@H](C)NC(=O)[C@H](C(C)C)N(C)C(=O)CN(C)C(=O)[C@H]([C@@H](C)O)NC(=O)[C@H](C)N(C)C(=O)[C@H](CC(C)C)N(C)C(=O)[C@H](C)NC(=O)C[C@@H](C(=O)N(C)[C@@H](Cc2ccccc2)C(=O)N[C@@H](C)C(=O)N2CCCCC2)NC1=O` [DP-177] (A[NMeL][NMeA]T[Sar][NMeV]AF[NMeL]LD[NMeF]A-Piperidide; lactam N-11), the Papp at 18 hours, 50 µM in series [1] (setting [3]) turned out to be 23 ×10⁻⁶ cm/s. In series [2] (setting [4]), the microsomal CLint at 1 uM was found to be 27 µL/min/mg.
For the compound `CC(C)C[C@@H]1NC(=O)[C@H](CC(C)C)N(C)C(=O)[C@H](C)NC(=O)[C@H](C(C)C)N(C)C(=O)[C@H](Cc2ccccc2)NC(=O)CN(C)C(=O)[C@H]([C@@H](C)O)NC(=O)[C@H](C)N(C)C(=O)[C@H](CC(C)C)N(C)C(=O)[C@@H](C)NC(=O)C[C@@H](C(=O)N(C)[C@@H](Cc2ccccc2)C(=O)N[C@@H](C)C(=O)N2CCCCC2)NC1=O` [DP-179] ([dA][NMeL][NMeA]T[Sar]F[NMeV]A[NMeL]LD[NMeF]A-Piperidide; lactam N-11), the Papp at 18 hours, 50 µM in series [1] (setting [3]) amounted to 17 ×10⁻⁶ cm/s. Moreover, in series [2] (setting [4]), the microsomal CLint at 1 uM is 13 µL/min/mg.
